Key:
[1] = target: T1, DHFRMp fused to eGFP (chimera), free in bulk solution (Moritella profunda, UniProt Q70YQ6); assay: differential scanning fluorimetry, SYPRO Orange; format: binding; settings: 500 µM ligand, 5 µM chimera, working buffer pH 8.0; transition of the DHFRMp part
T1 construct: gene dyrA; N-terminal His7-eGFP (A206K)-linker with TEV site-DHFRMp at the C-terminus; fusion uncut; E. coli BL21; not encapsulated

[2] = target: T2, GroEL (Escherichia coli, UniProt P0A6F5 1-548); assay: SEC; freshly assembled football complexes: acid-denatured eGFP added to GroEL and GroES oligomers in folding buffer, assembly started with Na2SO4, NaF, BeSO4 and ATP; gel-filtration in working buffer (20 mM Hepes pH 8.0, 100 mM KCl, 50 mM MgCl2, 50 mM Na2SO4, 10 mM NaF, 1 mM BeSO4, 1 mM DTT); A280 and A485, fractions by SDS-PAGE; settings: both partners purified
T2 construct: GroEL chaperonin of the Escherichia coli GroE system; used as 'GroEL oligomer'; Expression and purification of GroEL are not described; also called GroEL oligomer

[3] = substrate: Nc1nc2c(c(=O)[nH]1)N=C(CNc1ccc(C(=O)N[C@@H](CCC(=O)O)C(=O)O)cc1)CN2; assay: purified protein; format: biochemical, Moritella profunda; settings: 350 µM NADPH, 23 °C, working buffer (20 mM Hepes pH 8.0, 100 mM KCl, 50 mM MgCl2, 50 mM Na2SO4, 10 mM NaF, 1 mM BeSO4, 1 mM DTT), free chimera in bulk solution

T2 sequence (P0A6F5 whole entry): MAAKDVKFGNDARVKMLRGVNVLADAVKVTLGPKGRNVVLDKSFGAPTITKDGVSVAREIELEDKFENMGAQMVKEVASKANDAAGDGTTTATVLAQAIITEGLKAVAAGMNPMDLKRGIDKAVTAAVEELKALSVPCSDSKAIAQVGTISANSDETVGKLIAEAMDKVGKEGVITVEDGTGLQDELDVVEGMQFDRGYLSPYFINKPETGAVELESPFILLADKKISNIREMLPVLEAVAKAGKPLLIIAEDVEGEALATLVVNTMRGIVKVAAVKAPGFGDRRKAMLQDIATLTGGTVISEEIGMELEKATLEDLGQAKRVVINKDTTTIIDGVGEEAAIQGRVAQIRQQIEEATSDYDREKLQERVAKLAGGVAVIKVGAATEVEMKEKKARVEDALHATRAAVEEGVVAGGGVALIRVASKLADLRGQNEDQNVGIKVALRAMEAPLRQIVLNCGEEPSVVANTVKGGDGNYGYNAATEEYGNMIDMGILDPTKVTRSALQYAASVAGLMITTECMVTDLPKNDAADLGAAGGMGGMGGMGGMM

Molecule | increase in melting temperature (dTm) [1] | further results
Nc1nc2c(c(=O)[nH]1)N=C(CNc1ccc(C(=O)N[C@@H](CCC(=O)O)C(=O)O)cc1)CN2 [dihydrofolate] | ~ 31 °C | 
NC(=O)C1=CN([C@@H]2O[C@H](COP(=O)(O)OP(=O)(O)OC[C@H]3O[C@@H](n4cnc5c(N)ncnc54)[C@H](OP(=O)(O)O)[C@@H]3O)[C@@H](O)[C@H]2O)C=CC1 [NADPH] | ~ 8 °C | 
GroES (natural protein, Escherichia coli, UniProt P0A6F9 1-97, looked up, GroES, co-factor of GroEL in the Escherichia coli GroE system; used as 'GroES oligomer'; Expression and purification of GroES are not described; also called GroES oligomer) MNIRPLHDRVIVKRKEVETKSAGGIVLTGSAAAKSTRGEVLAVGNGRILENGEVKPLDVKVGDIVIFNDGYGVKSEKIDNEEVLIMSESDILAIVEA |  | binding result [2]: binds
DHFRMp fused to eGFP (chimera), free in bulk solution (Moritella profunda) (protein, N-terminal His7-eGFP (A206K)-linker with TEV site-DHFRMp at the C-terminus; fusion uncut; E. coli BL21; not encapsulated) MIVSMIAALANNRVIGLDNKMPWHLPAELQLFKRATLGKPIVMGRNTFESIGRPLPGRLNIVLSRQTDYQPEGVTVVATLEDAVVAAGDVEELMIIGGATIYNQCLAAADRLYLTHIELTTEGDTWFPDYEQYNWQEIEHESYAADDKNPHNYRFSLLERVK |  | Km [3]: 33 (±2) µM
